In US20140213538A1, “LYSOPHOSPHATIDIC ACID RECEPTOR ANTAGONISTS” (InterMune, Inc., priority 2013, published 2014):

The molecules below were run against T1, LPA/S1P GPCR of interest (Homo sapiens, UniProt Q92633) (assay: Beta-Arrestin based assay (PathHunter)).
T1 construct: host or cells: CHO
Format: cell-based
Method: CMV promoter based DNA constructs expressing a fusion of the LPA/S1P GPCR of interest and ProLink™ tag were used to transfect EA Parental™ CHO cells (DiscoverX, Fremont, Calif.) using a FuGENE® transfection kit (Roche). Beta-Arrestin based assays were conducted 24-48 hrs post transfection using PathHunter® assay kits (DiscoverX, Fremont, Calif.). Agonist and antagonist assays were performed in quadruplicate in white 384 well plates. End point luminescence data were plotted and fit to a 4 parameter logistic function to obtain IC50 values. For antagonist assays, an IC80 concentration of agonist (LPA) equal to 0.5 micromolar was used.

T1 sequence (Q92633 whole entry): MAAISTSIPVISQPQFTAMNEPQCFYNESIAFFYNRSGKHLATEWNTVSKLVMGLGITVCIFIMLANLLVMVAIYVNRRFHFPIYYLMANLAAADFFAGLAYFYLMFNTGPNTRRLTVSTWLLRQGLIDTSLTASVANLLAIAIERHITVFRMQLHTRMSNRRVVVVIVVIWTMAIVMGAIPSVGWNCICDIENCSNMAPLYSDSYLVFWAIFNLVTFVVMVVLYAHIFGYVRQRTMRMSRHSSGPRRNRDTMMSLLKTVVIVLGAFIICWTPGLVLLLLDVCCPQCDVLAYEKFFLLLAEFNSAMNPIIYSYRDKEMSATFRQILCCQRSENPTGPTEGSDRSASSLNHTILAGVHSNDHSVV

Structure (SMILES) | EC50 [nM]
C[C@@H](OC(=O)Nc1c(-c2cc3sc(-c4ccc(C5(C(=O)O)CC5)cc4OC(F)(F)F)cc3s2)nnn1C)c1ccccc1 [IT386] | 50 to 500
Cc1nsc(-c2ccc3c(c2)CCCc2cc(CC(=O)O)ccc2-3)c1NC(=O)O[C@H](C)c1ccccc1 [IT225] | 50 to 500
C[C@@H](OC(=O)Nc1c(-c2cc3sc(-c4ccc(C5(C(=O)O)CC5)nc4)cc3s2)cnn1C)c1ccccc1 [IT269] | 50 to 500
C[C@@H](OC(=O)Nc1c(-c2ccc(C#CC(=O)Nc3ccc(C(=O)O)cc3)cc2)cnn1C)c1ccccc1 [IT431] | > 500
Cc1nsc(-c2cc3sc(-c4ccc(C5(C(=O)O)CC5)c5ccccc45)cc3s2)c1NC(=O)O[C@H](C)c1ccccc1 [IT322] | > 500
Cc1nsc(-c2cc3sc(C4CCC(C(=O)O)C4)cc3s2)c1NC(=O)O[C@H](C)c1ccccc1 (stereo partly shown) [IT276] | > 500
Cc1cc(C2(C(=O)O)CC2)c(F)cc1-c1cc2sc(-c3cnn(C)c3NC(=O)O[C@H](C)c3ccccc3)cc2s1 [IT342] | < 50
Cc1nsc(-c2cc3sc(-c4ccc(CC(=O)O)cc4C(F)(F)F)cc3s2)c1NC(=O)O[C@H](C)c1ccccc1 [IT337] | > 500
C[C@@H](OC(=O)Nc1c(-c2cc3sc(-c4ccc5scc(C6(C(=O)O)CC6)c5c4)cc3s2)cnn1C)c1ccccc1 [IT370] | > 500
Cc1nsc(-c2cc3sc(-c4ccc5[nH]cc(CC(=O)O)c5c4)cc3s2)c1NC(=O)O[C@H](C)c1ccccc1 [IT283] | > 500
Cc1nsc(-c2cc3sc(-c4ccc(CC(=O)O)c(F)c4F)cc3s2)c1NC(=O)O[C@H](C)c1ccccc1 [IT265] | 50 to 500
C[C@@H](OC(=O)Nc1c(-c2ccc(C#CC(=O)NCC(=O)O)cc2)cnn1C)c1ccccc1 [IT398] | > 500
Cc1cc(-c2cc3sc(-c4snc(C)c4NC(=O)O[C@H](C)c4ccccc4)cc3s2)ccc1CC(=O)O [IT292] | > 500
C[C@@H](OC(=O)Nc1c(-c2cc3sc(-c4ccc5[nH]cc(CC(=O)O)c5c4)cc3s2)nnn1C)c1ccccc1 [IT298] | 50 to 500
Cc1noc(-c2ccc(-c3ccc(Oc4ccc(C(=O)O)o4)cc3)cc2)c1NC(=O)O[C@H](C)c1ccccc1 [IT388] | 50 to 500
C[C@@H](OC(=O)Nc1c(-c2cc3sc(-c4ccc(CC(=O)O)cc4OC(F)(F)F)cc3s2)cnn1C)c1ccccc1 [IT383] | > 500
Cc1cc(CC(=O)O)c(F)cc1-c1cc2sc(-c3cnn(C)c3NC(=O)O[C@H](C)c3ccccc3)cc2s1 [IT251] | 50 to 500
Cc1nsc(-c2cc3sc(-c4cc(Cl)c(CC(=O)O)cc4F)cc3s2)c1NC(=O)O[C@H](C)c1ccccc1 [IT205] | > 500
C[C@@H](OC(=O)Nc1c(-c2cc3sc(-c4ccc(CC(=O)O)c(F)c4F)cc3s2)cnn1C)c1ccccc1 [IT211] | 50 to 500
Cc1nsc(-c2ccc(-c3ccc(C(=O)O)s3)cc2)c1NC(=O)O[C@H](C)c1ccccc1 [IT144] | > 500
COc1cc(-c2cc3sc(-c4snc(C)c4NC(=O)O[C@H](C)c4ccccc4)cc3s2)c(OC)cc1CC(=O)O [IT351] | > 500
C[C@@H](OC(=O)Nc1c(-c2cc3sc(-c4ccc(CC(=O)O)cc4C(F)(F)F)cc3s2)nnn1C)c1ccccc1 [IT363] | > 500
Cc1noc(-c2ccc(-c3ccc(OC(C)C(=O)O)cc3)cc2)c1NC(=O)O[C@H](C)c1ccccc1 (single isomer, unassigned) [IT256] | < 50
C[C@@H](NC(=O)C#Cc1ccc(-c2cnn(C)c2NC(=O)O[C@H](C)c2ccccc2)cc1)C(=O)O [IT399] | > 500
COc1cc(-c2cc3sc(-c4cnn(C)c4NC(=O)O[C@H](C)c4ccccc4)cc3s2)c(OC)cc1CC(=O)O [IT349] | > 500
C[C@@H](OC(=O)Nc1c(-c2cc3sc(-c4ccc(-c5nnc(C6(C(=O)O)CC6)o5)cc4)cc3s2)cnn1C)c1ccccc1 [IT217] | > 500
C[C@@H](OC(=O)Nc1c(-c2cc3sc(-c4ccc(C5(C(=O)O)CC5)c5ccccc45)cc3s2)nnn1C)c1ccccc1 [IT321] | 50 to 500
COc1cc(C2(C(=O)O)CC2)c(OC)cc1-c1cc2sc(-c3nnn(C)c3NC(=O)O[C@H](C)c3ccccc3)cc2s1 [IT415] | > 500
Cc1nsc(-c2cc3sc(-c4ccc(C5(C(=O)O)CC5)c(S(C)(=O)=O)c4)cc3s2)c1NC(=O)O[C@H](C)c1ccccc1 [IT458] | > 500

Second part, the molecule after the results:

EC50 [nM] | Structure (SMILES)
50 to 500 | COc1cc(-c2cc3sc(-c4nnn(C)c4NC(=O)O[C@H](C)c4ccccc4)cc3s2)cnc1C1(C(=O)O)CC1 [IT358]
> 500 | Cc1cc(-c2cc3sc(-c4nnn(C)c4NC(=O)O[C@H](C)c4ccccc4)cc3s2)c(F)cc1CC(=O)O [IT242]
50 to 500 | Cc1noc(-c2ccc(-c3ccc(OCC(=O)O)cc3)cc2)c1NC(=O)O[C@H](C)c1ccccc1 [IT277]
50 to 500 | C[C@@H](OC(=O)Nc1c(-c2cc3sc(-c4ccc(-c5nnc(C6(C(=O)O)CC6)s5)cc4)cc3s2)nnn1C)c1ccccc1 [IT288]
> 500 | Cc1nsc(-c2cc3sc(-c4ccc(CC(=O)O)c(S(C)(=O)=O)c4)cc3s2)c1NC(=O)O[C@H](C)c1ccccc1 [IT433]
> 500 | C[C@@H](OC(=O)Nc1c(-c2cc3sc(-c4ccc5[nH]c(C6(C(=O)O)CC6)nc5c4)cc3s2)cnn1C)c1ccccc1 [IT427]
> 500 | C[C@@H](OC(=O)Nc1c(-c2ccc(-c3ncc(C4(C(=O)O)CC4)s3)cc2)nnn1C)c1ccccc1 [IT239]
> 500 | Cc1nsc(-c2cc3sc(-c4ccc(CC(=O)O)c(C(F)(F)F)c4)cc3s2)c1NC(=O)O[C@H](C)c1ccccc1 [IT204]
50 to 500 | Cc1noc(-c2ccc(-c3ccc(Oc4ncoc4C(=O)O)cc3)cc2)c1NC(=O)O[C@H](C)c1ccccc1 [IT419]
> 500 | Cc1nsc(-c2cc3sc(-c4ccc5c(C6(C(=O)O)CC6)coc5c4)cc3s2)c1NC(=O)O[C@H](C)c1ccccc1 [IT397]
> 500 | Cc1nsc(-c2cc3sc(-c4ccc5c(CC(=O)O)coc5c4)cc3s2)c1NC(=O)O[C@H](C)c1ccccc1 [IT290]
> 500 | C[C@@H](OC(=O)Nc1c(-c2cc3sc(-c4ccc(-c5nnc(CC(=O)O)o5)cc4)cc3s2)cnn1C)c1ccccc1 [IT206]
50 to 500 | Cc1nsc(-c2cc3sc(-c4ccc(C5(C(=O)O)CC5)s4)cc3s2)c1NC(=O)O[C@H](C)c1ccccc1 [IT274]
50 to 500 | C[C@@H](OC(=O)Nc1c(-c2cc3sc(-c4ccc(C5(C(=O)O)CC5)c(C(F)(F)F)c4)cc3s2)nnn1C)c1ccccc1 [IT380]
> 500 | COc1cc(C2(C(=O)O)CC2)c(F)cc1-c1cc2sc(-c3snc(C)c3NC(=O)O[C@H](C)c3ccccc3)cc2s1 [IT412]
> 500 | Cc1nsc(-c2ccc(-c3ncc(C(=O)O)s3)cc2)c1NC(=O)O[C@H](C)c1ccccc1 [IT177]
> 500 | C[C@@H](OC(=O)Nc1c(-c2cc3sc(-c4ccc(-c5nnc(C6(C(=O)O)CC6)s5)cc4)cc3s2)cnn1C)c1ccccc1 [IT287]
50 to 500 | COc1cc(C2(C(=O)O)CC2)c(F)cc1-c1cc2sc(-c3cnn(C)c3NC(=O)O[C@H](C)c3ccccc3)cc2s1 [IT411]
50 to 500 | C[C@@H](OC(=O)Nc1c(-c2cc3sc(-c4cc(F)c(CC(=O)O)cc4F)cc3s2)nnn1C)c1ccccc1 [IT328]
> 500 | C[C@@H](OC(=O)Nc1c(-c2cc3sc(-c4ccc(-c5nnc(C6(C(=O)O)CC6)o5)cc4)cc3s2)nnn1C)c1ccccc1 [IT218]
